± gives the expanded uncertainty stated by the source.
Test: refractive index (Na D-line) (dimensionless)
Details: 101.33 kPa, Liquid, Standard Abbe refractometry

Row | Compound | refractive index (298.15 K) | refractive index (293.15 K)
1 | CCCCCCCCCC [decane] | 1.4091 ± 0.004 | 
2 | CCCO [propan-1-ol] |  | 1.3852 ± 0.004
3 | CCCCCCCC [octane] | 1.398 ± 0.004 | 
4 | CCCCCCCCC [nonane] |  | 1.4056 ± 0.004
